≈ marks a conversion by molar mass, not a printed value.
Experiments:
Assay in all cases: microbe, parasite or virus in culture
VREfa ATCC51575 = format: cell-based, Enterococcus faecalis; conditions: Enterococcus faecalis; VREfa ATCC51575 (vancomycin-resistant E. faecalis); determined by Sichuan Primed Shines Bio-tech, similar protocol; read-out: MIC
Method: (§1) For MIC determination, Staphylococcus aureus ATCC25923, Bacillus subtilis 168, Micrococcus luteus DSM1790, Enterococcus faecalis OG1RF, Enterococcus faecium MCC2763, Escherichia coli DH5α and Pseudomonas aeruginosa PAO1 were used as indicator strains. Nisin and vancomycin were used as positive controls. A dilution series of massatide A, massatide B, vancomycin (16, 8, 4, 2, 1, 0.5, 0.25, 0.125, 0.0625, 0.0313 μg/mL) and sistertide A1, kebanetide A1, kebanetide A2, nisin (64, 32, 16, 8, 4, 2, 1, 0.5, 0.25, 0.125 μg/mL) were prepared in 96-well plate from 1–10th column. The indicator strains were added to the compound-containing well. The indicator strain culture with no antibiotics was prepared in the 11th column. The 12th column was filled with 200 μL empty MHB medium. The 96-well plate was incubated at 37 °C for 20 h (30 °C for M. luteus and B. subtilis). The OD600 was detected on MULTISKAN Sky (Thermo Scientific) and MIC values were determined. The MIC values of clinical isolates were determined by Sichuan Primed Shines Bio-tech Co., Ltd. (China) following similar protocol. Levofloxacin was used as a positive control.

LREfa 20-1 = format: cell-based, Enterococcus faecalis; conditions: Enterococcus faecalis, 201; LREfa 20-1 (linezolid-resistant E. faecalis); determined by Sichuan Primed Shines Bio-tech, similar protocol; read-out: MIC
Method: as §1

[1] = tested on: Klebsiella pneumoniae ATCC700603; format: cell-based; conditions: Klebsiella pneumoniae ATCC700603; determined by Sichuan Primed Shines Bio-tech, similar protocol; read-out: MIC
Method: as §1

[2] = tested on: Klebsiella pneumoniae 15-1; format: cell-based; conditions: 151; Klebsiella pneumoniae 15-1; determined by Sichuan Primed Shines Bio-tech, similar protocol; read-out: MIC
Method: as §1

[3] = tested on: Enterococcus faecalis 19-1; format: cell-based; conditions: 191; Enterococcus faecalis 19-1; determined by Sichuan Primed Shines Bio-tech, similar protocol; read-out: MIC
Method: as §1

[4] = tested on: Acinetobacter baumannii 20-1; format: cell-based; conditions: 201; Acinetobacter baumannii 20-1; determined by Sichuan Primed Shines Bio-tech, similar protocol; read-out: MIC
Method: as §1

[5] = tested on: Acinetobacter baumannii 20-2; format: cell-based; conditions: 202; Acinetobacter baumannii 20-2; determined by Sichuan Primed Shines Bio-tech, similar protocol; read-out: MIC
Method: as §1

VMSA ATCC700788 = format: cell-based, Staphylococcus aureus; conditions: Staphylococcus aureus; VMSA ATCC700788 (vancomycin-intermediate S. aureus); determined by Sichuan Primed Shines Bio-tech, similar protocol; read-out: MIC
Method: as §1

MRSA ATCC33591 = format: cell-based, Staphylococcus aureus; conditions: Staphylococcus aureus; MRSA ATCC33591; determined by Sichuan Primed Shines Bio-tech, similar protocol; read-out: MIC
Method: as §1

MRSA 15-1 = format: cell-based, Staphylococcus aureus; conditions: Staphylococcus aureus; MRSA 15-1 (methicillin-resistant S. aureus); determined by Sichuan Primed Shines Bio-tech, similar protocol; read-out: MIC
Method: as §1

LRSA 20-1 = format: cell-based, Staphylococcus aureus; conditions: Staphylococcus aureus; LRSA 20-1 (linezolid-resistant S. aureus); determined by Sichuan Primed Shines Bio-tech, similar protocol; read-out: MIC
Method: as §1

VMSA ATCC700699 = format: cell-based, Staphylococcus aureus; conditions: Staphylococcus aureus; VMSA ATCC700699 (vancomycin-intermediate S. aureus); determined by Sichuan Primed Shines Bio-tech, similar protocol; read-out: MIC
Method: as §1

MRSA ATCC43300 = format: cell-based, Staphylococcus aureus; conditions: Staphylococcus aureus; MRSA ATCC43300; determined by Sichuan Primed Shines Bio-tech, similar protocol; read-out: MIC
Method: as §1

C[C@H]1COc2c(N3CCN(C)CC3)c(F)cc3c(=O)c(C(=O)O)cn1c23 [Levofloxacin, reference compound]
MIC (VREfa ATCC51575): 0.5 µg/mL (≈ 1.38 µM)
MIC (LREfa 20-1): 32 µg/mL (≈ 88.6 µM)
MIC [1]: 0.5 µg/mL (≈ 1.38 µM)
MIC [2]: 0.25 µg/mL (≈ 0.692 µM)
MIC [3]: 1 µg/mL (≈ 2.77 µM)
MIC [4]: 8 µg/mL (≈ 22.1 µM)
MIC [5]: 0.06 µg/mL (≈ 0.166 µM)
MIC (VMSA ATCC700788): 32 µg/mL (≈ 88.6 µM)
MIC (MRSA ATCC33591): 0.25 µg/mL (≈ 0.692 µM)
MIC (MRSA 15-1): 16 µg/mL (≈ 44.3 µM)
MIC (LRSA 20-1): 32 µg/mL (≈ 88.6 µM)
MIC (VMSA ATCC700699): 64 µg/mL (≈ 177 µM)
MIC (MRSA ATCC43300): 0.25 µg/mL (≈ 0.692 µM)
